Measured values taken from ChEMBL document CHEMBL1155084 (J Med Chem, 2008).

Test system: Blood
Test: Inhibition of TNFalpha release in human whole blood
Assay type: functional, tissue-based
Settings: not given

Structure (SMILES) | IC50
CSc1nc(-c2ccc(F)cc2)c(-c2ccnc(NC3CCc4ccccc43)c2)[nH]1 (stereo unspecified) | 2670 nM
CCC(Nc1cc(-c2[nH]c(SC)nc2-c2ccc(F)cc2)ccn1)c1ccccc1 (stereo unspecified) | 672 nM
COCCn1c(SC)nc(-c2ccc(F)cc2)c1-c1ccnc(N[C@@H](C)c2ccccc2)c1 | 580 nM

Test system: Blood
Test: Inhibition of IL1-beta release in human whole blood
Assay type: functional, tissue-based
Settings: not given

Structure (SMILES) | IC50
CCC(Nc1cc(-c2[nH]c(SC)nc2-c2ccc(F)cc2)ccn1)c1ccccc1 (stereo unspecified) | 7640 nM

Organism: Homo sapiens
Test: Inhibition of human CAMK2 at 10 uM
Settings: not given

Structure (SMILES) | inhibition
CSc1nc(-c2ccc(F)cc2)c(-c2ccnc(NC3CCc4ccccc43)c2)[nH]1 (stereo unspecified) | 0%
CCC(Nc1cc(-c2[nH]c(SC)nc2-c2ccc(F)cc2)ccn1)c1ccccc1 (stereo unspecified) | 0%

Target: RAF proto-oncogene serine/threonine-protein kinase (Homo sapiens) (UniProt P04049)
Test: Inhibition of human c-RAF at 10 uM
Settings: not given

Structure (SMILES) | inhibition
CSc1nc(-c2ccc(F)cc2)c(-c2ccnc(NC3CCc4ccccc43)c2)[nH]1 (stereo unspecified) | 36%
CCC(Nc1cc(-c2[nH]c(SC)nc2-c2ccc(F)cc2)ccn1)c1ccccc1 (stereo unspecified) | 31%

Target: Mitogen-activated protein kinase 3 (Homo sapiens) (UniProt P27361)
Test: Inhibition of human ERK1 at 10 uM
Settings: not given

Structure (SMILES) | inhibition
CSc1nc(-c2ccc(F)cc2)c(-c2ccnc(NC3CCc4ccccc43)c2)[nH]1 (stereo unspecified) | 28%
CCC(Nc1cc(-c2[nH]c(SC)nc2-c2ccc(F)cc2)ccn1)c1ccccc1 (stereo unspecified) | 23%

Organism: Homo sapiens
Test: Inhibition of human JNK1-alpha-1/SAPK1c at 10 uM
Settings: not given

Structure (SMILES) | inhibition
CSc1nc(-c2ccc(F)cc2)c(-c2ccnc(NC3CCc4ccccc43)c2)[nH]1 (stereo unspecified) | 62%
CCC(Nc1cc(-c2[nH]c(SC)nc2-c2ccc(F)cc2)ccn1)c1ccccc1 (stereo unspecified) | 13%

Target: Dual specificity mitogen-activated protein kinase kinase 1 (Homo sapiens) (UniProt Q02750)
Sequence (Q02750 whole entry): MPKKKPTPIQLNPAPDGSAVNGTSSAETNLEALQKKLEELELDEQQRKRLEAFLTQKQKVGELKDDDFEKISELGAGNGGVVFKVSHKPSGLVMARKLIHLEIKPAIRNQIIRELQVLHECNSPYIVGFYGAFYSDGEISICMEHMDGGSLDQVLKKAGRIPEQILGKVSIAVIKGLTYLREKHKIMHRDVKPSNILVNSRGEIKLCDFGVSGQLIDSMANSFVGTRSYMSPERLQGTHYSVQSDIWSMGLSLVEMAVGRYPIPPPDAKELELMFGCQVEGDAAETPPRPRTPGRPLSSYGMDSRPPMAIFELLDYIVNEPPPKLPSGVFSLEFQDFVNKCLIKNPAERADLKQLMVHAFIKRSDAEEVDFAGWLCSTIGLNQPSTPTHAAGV
Test: Inhibition of human MEK1 at 10 uM
Settings: not given

Structure (SMILES) | inhibition
CSc1nc(-c2ccc(F)cc2)c(-c2ccnc(NC3CCc4ccccc43)c2)[nH]1 (stereo unspecified) | 1%
CCC(Nc1cc(-c2[nH]c(SC)nc2-c2ccc(F)cc2)ccn1)c1ccccc1 (stereo unspecified) | 4%

Target: Mitogen-activated protein kinase 9 (Homo sapiens) (UniProt P45984)
Sequence (P45984 whole entry, looked up): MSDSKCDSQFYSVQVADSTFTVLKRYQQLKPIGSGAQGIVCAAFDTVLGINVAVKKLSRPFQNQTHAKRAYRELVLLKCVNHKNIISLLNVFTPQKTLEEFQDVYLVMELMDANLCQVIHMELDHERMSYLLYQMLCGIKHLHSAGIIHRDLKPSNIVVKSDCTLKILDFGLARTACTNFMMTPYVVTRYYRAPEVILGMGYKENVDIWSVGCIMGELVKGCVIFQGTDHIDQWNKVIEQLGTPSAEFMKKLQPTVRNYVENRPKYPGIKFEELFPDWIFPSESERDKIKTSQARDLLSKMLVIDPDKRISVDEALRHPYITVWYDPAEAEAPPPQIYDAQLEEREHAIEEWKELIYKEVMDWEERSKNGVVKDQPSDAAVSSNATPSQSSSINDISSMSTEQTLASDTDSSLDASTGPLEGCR
Test: Inhibition of human JNK2alpha2 at 10 uM
Settings: not given

Structure (SMILES) | inhibition
CSc1nc(-c2ccc(F)cc2)c(-c2ccnc(NC3CCc4ccccc43)c2)[nH]1 (stereo unspecified) | 79%
CCC(Nc1cc(-c2[nH]c(SC)nc2-c2ccc(F)cc2)ccn1)c1ccccc1 (stereo unspecified) | 4%

Target: Mitogen-activated protein kinase 10 (Homo sapiens) (UniProt P53779)
Sequence (P53779 whole entry): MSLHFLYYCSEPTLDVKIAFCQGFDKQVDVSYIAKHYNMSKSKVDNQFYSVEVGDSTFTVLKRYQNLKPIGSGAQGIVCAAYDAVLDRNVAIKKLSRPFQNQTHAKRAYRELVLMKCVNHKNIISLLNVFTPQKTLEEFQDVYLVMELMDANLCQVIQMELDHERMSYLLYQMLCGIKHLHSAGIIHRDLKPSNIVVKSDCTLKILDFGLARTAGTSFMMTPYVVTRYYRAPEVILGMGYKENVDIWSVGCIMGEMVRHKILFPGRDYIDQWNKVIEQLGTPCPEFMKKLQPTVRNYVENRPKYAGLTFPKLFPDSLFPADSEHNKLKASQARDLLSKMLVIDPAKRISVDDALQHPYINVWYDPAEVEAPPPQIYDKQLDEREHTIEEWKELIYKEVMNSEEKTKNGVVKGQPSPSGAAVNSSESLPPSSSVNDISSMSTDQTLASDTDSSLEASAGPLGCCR
Test: Inhibition of human JNK3 at 10 uM
Settings: not given

Structure (SMILES) | inhibition
CSc1nc(-c2ccc(F)cc2)c(-c2ccnc(NC3CCc4ccccc43)c2)[nH]1 (stereo unspecified) | 100%
CCC(Nc1cc(-c2[nH]c(SC)nc2-c2ccc(F)cc2)ccn1)c1ccccc1 (stereo unspecified) | 63%

Organism: Homo sapiens
Test: Inhibition of human PKA at 10 uM
Settings: not given

Structure (SMILES) | inhibition
CSc1nc(-c2ccc(F)cc2)c(-c2ccnc(NC3CCc4ccccc43)c2)[nH]1 (stereo unspecified) | 0%
CCC(Nc1cc(-c2[nH]c(SC)nc2-c2ccc(F)cc2)ccn1)c1ccccc1 (stereo unspecified) | 0%

Target: Protein kinase C alpha type (Homo sapiens) (UniProt P17252)
Test: Inhibition of human PKCalpha at 10 uM
Settings: not given

Structure (SMILES) | inhibition
CSc1nc(-c2ccc(F)cc2)c(-c2ccnc(NC3CCc4ccccc43)c2)[nH]1 (stereo unspecified) | 0%
CCC(Nc1cc(-c2[nH]c(SC)nc2-c2ccc(F)cc2)ccn1)c1ccccc1 (stereo unspecified) | 0%

Target: RAC-alpha serine/threonine-protein kinase (Homo sapiens) (UniProt P31749)
Sequence (P31749 whole entry): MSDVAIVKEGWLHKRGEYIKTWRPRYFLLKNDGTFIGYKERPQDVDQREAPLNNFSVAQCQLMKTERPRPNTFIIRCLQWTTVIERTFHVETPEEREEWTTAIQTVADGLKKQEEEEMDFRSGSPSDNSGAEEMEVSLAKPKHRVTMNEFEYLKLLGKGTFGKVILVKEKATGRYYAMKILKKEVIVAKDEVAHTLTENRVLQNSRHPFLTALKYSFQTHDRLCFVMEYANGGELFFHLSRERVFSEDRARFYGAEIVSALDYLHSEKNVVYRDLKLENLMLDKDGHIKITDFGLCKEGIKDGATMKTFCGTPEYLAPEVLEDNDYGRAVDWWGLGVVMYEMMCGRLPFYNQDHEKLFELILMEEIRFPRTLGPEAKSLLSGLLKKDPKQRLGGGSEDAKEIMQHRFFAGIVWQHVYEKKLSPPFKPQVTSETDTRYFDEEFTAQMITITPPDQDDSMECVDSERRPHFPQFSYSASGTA
Test: Inhibition of human PKBalpha at 10 uM
Settings: not given

Structure (SMILES) | inhibition
CSc1nc(-c2ccc(F)cc2)c(-c2ccnc(NC3CCc4ccccc43)c2)[nH]1 (stereo unspecified) | 12%
CCC(Nc1cc(-c2[nH]c(SC)nc2-c2ccc(F)cc2)ccn1)c1ccccc1 (stereo unspecified) | 14%

Target: Glycogen synthase kinase-3 beta (Homo sapiens) (UniProt P49841)
Test: Inhibition of human GSK3-beta at 10 uM
Settings: not given

Structure (SMILES) | inhibition
CSc1nc(-c2ccc(F)cc2)c(-c2ccnc(NC3CCc4ccccc43)c2)[nH]1 (stereo unspecified) | 0%
CCC(Nc1cc(-c2[nH]c(SC)nc2-c2ccc(F)cc2)ccn1)c1ccccc1 (stereo unspecified) | 0%

Target: Rho-associated protein kinase 2 (Homo sapiens) (UniProt O75116)
Test: Inhibition of human ROCK2 at 10 uM
Settings: not given

Structure (SMILES) | inhibition
CSc1nc(-c2ccc(F)cc2)c(-c2ccnc(NC3CCc4ccccc43)c2)[nH]1 (stereo unspecified) | 0%
CCC(Nc1cc(-c2[nH]c(SC)nc2-c2ccc(F)cc2)ccn1)c1ccccc1 (stereo unspecified) | 0%

Target: Tyrosine-protein kinase Lck (Homo sapiens) (UniProt P06239)
Sequence (P06239 whole entry, looked up): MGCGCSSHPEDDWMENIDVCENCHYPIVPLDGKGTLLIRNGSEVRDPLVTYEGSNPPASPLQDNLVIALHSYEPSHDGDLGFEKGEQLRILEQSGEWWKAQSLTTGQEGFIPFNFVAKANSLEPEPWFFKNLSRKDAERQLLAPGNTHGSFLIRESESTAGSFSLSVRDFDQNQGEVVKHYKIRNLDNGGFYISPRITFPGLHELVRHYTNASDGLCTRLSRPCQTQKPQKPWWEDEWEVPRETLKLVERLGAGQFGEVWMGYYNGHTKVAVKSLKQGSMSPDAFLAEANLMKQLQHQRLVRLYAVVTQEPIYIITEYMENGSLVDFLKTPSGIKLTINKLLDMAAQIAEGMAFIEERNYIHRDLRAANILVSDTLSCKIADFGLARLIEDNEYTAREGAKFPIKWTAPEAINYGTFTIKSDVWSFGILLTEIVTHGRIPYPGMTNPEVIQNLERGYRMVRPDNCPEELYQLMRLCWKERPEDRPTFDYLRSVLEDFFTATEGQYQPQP
Test: Inhibition of human LCK at 10 uM
Settings: not given

Structure (SMILES) | inhibition
CSc1nc(-c2ccc(F)cc2)c(-c2ccnc(NC3CCc4ccccc43)c2)[nH]1 (stereo unspecified) | 26%
CCC(Nc1cc(-c2[nH]c(SC)nc2-c2ccc(F)cc2)ccn1)c1ccccc1 (stereo unspecified) | 25%

Target: T1, CYP1A2 (Homo sapiens, UniProt P05177)
T1 sequence (P05177 whole entry): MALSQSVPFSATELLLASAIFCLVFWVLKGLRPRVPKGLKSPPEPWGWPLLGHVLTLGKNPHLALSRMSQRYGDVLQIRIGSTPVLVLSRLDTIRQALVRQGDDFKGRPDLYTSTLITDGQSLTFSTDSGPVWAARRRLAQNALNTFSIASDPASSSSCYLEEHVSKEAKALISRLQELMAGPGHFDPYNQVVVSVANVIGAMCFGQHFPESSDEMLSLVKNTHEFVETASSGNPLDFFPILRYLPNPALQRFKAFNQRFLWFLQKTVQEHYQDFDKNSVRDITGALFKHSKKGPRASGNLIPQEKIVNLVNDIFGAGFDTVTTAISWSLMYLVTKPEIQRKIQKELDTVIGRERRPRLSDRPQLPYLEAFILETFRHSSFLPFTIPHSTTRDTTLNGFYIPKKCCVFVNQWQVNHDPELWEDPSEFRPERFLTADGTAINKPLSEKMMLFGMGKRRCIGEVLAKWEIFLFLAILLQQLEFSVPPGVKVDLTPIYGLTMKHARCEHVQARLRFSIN
Test: Inhibition of CYP1A2 at 10 uM
Assay type: ADME
Settings: not given

Structure (SMILES) | inhibition at 10 µM
CSc1nc(-c2ccc(F)cc2)c(-c2ccnc(NC3CCc4ccccc43)c2)[nH]1 (stereo unspecified) | 68%
COCCn1c(SC)nc(-c2ccc(F)cc2)c1-c1ccnc(N[C@@H](C)c2ccccc2)c1 | 5%

Target: CYP2C9 (Homo sapiens, UniProt P11712)
Sequence (P11712 whole entry): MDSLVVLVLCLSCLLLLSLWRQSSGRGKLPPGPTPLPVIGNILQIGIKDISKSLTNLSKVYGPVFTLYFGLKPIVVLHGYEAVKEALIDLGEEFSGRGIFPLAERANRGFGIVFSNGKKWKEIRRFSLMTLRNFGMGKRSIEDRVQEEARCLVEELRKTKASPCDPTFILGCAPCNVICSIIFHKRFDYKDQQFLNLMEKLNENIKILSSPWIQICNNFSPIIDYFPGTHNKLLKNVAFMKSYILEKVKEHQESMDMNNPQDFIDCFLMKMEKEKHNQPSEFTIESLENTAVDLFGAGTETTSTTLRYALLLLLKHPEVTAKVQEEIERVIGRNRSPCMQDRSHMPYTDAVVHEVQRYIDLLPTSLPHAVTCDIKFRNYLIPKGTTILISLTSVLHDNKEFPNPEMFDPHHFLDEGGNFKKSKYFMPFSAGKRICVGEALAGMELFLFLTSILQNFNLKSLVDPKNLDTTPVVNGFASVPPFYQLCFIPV
Test: Inhibition of CYP2C9 at 10 uM
Assay type: ADME
Settings: not given

Structure (SMILES) | inhibition at 10 µM
CSc1nc(-c2ccc(F)cc2)c(-c2ccnc(NC3CCc4ccccc43)c2)[nH]1 (stereo unspecified) | 84%
COCCn1c(SC)nc(-c2ccc(F)cc2)c1-c1ccnc(N[C@@H](C)c2ccccc2)c1 | 85%

Target: CYP2C19 (Homo sapiens, UniProt P33261)
Sequence (P33261 whole entry): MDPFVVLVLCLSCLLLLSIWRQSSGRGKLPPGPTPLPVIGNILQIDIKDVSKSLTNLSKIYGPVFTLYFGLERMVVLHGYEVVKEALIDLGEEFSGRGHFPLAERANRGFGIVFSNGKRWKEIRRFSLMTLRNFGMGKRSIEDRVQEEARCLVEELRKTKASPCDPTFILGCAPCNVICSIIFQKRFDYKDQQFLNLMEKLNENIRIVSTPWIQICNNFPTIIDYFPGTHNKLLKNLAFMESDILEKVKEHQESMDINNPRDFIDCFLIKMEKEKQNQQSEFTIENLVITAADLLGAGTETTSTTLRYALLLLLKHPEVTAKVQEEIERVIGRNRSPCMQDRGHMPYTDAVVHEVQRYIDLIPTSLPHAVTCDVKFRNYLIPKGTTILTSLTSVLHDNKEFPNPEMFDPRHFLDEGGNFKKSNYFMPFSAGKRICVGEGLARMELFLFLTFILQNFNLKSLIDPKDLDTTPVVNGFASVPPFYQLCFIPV
Test: Inhibition of CYP2C19 at 10 uM
Assay type: ADME
Settings: not given

Structure (SMILES) | inhibition at 10 µM
CSc1nc(-c2ccc(F)cc2)c(-c2ccnc(NC3CCc4ccccc43)c2)[nH]1 (stereo unspecified) | 79%
COCCn1c(SC)nc(-c2ccc(F)cc2)c1-c1ccnc(N[C@@H](C)c2ccccc2)c1 | 95%

Target: CYP2D6 (Homo sapiens, UniProt P10635)
Test: Inhibition of CYP2D6 at 10 uM
Assay type: ADME
Settings: not given

Structure (SMILES) | inhibition at 10 µM
CSc1nc(-c2ccc(F)cc2)c(-c2ccnc(NC3CCc4ccccc43)c2)[nH]1 (stereo unspecified) | 68%
COCCn1c(SC)nc(-c2ccc(F)cc2)c1-c1ccnc(N[C@@H](C)c2ccccc2)c1 | 25%

Target: CYP3A4 (Homo sapiens, UniProt P08684)
Sequence (P08684 whole entry): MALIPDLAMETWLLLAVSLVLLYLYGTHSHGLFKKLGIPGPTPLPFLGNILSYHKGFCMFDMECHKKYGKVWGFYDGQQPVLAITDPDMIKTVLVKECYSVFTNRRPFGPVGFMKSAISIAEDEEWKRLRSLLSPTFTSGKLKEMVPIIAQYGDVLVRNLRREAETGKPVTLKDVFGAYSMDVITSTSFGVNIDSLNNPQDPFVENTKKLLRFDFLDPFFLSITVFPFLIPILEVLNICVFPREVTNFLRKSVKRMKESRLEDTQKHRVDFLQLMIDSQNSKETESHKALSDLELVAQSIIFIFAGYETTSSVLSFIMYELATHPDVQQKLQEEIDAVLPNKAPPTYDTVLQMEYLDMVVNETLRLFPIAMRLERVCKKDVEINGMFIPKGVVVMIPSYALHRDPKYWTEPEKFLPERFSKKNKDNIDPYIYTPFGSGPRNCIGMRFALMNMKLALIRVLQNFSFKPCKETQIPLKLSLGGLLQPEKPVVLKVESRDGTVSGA
Test: Inhibition of CYP3A4 at 10 uM
Assay type: ADME
Settings: not given

Structure (SMILES) | inhibition at 10 µM
CSc1nc(-c2ccc(F)cc2)c(-c2ccnc(NC3CCc4ccccc43)c2)[nH]1 (stereo unspecified) | 76%
COCCn1c(SC)nc(-c2ccc(F)cc2)c1-c1ccnc(N[C@@H](C)c2ccccc2)c1 | 81%

Target: T2, Mitogen-activated protein kinase 14 (Homo sapiens, UniProt Q16539)
T2 sequence (Q16539 whole entry): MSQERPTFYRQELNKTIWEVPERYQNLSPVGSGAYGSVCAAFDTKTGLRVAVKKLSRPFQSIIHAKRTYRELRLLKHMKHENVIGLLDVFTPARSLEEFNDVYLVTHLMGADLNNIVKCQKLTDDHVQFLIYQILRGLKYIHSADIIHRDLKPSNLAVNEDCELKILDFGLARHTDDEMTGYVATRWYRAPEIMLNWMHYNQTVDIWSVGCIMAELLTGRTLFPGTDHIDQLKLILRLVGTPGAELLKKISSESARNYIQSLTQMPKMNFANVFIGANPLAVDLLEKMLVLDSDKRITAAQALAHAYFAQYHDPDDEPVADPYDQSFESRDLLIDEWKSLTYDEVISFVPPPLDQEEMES
Test: Inhibition of p38alpha
Settings: not given

Structure (SMILES) | IC50
CSc1nc(-c2ccc(F)cc2)c(-c2ccnc(NC3CCc4ccccc43)c2)[nH]1 (stereo unspecified) | 28 nM
COCCn1c(SC)nc(-c2ccc(F)cc2)c1-c1ccnc(N[C@@H](C)c2ccccc2)c1 | 40 nM

Target: T2, Mitogen-activated protein kinase 14
Test: not given
Settings: at 10 µM

Structure (SMILES) | inhibition
CSc1nc(-c2ccc(F)cc2)c(-c2ccnc(NC3CCc4ccccc43)c2)[nH]1 (stereo unspecified) | 98%
CCC(Nc1cc(-c2[nH]c(SC)nc2-c2ccc(F)cc2)ccn1)c1ccccc1 (stereo unspecified) | 99%

Target: Mitogen-activated protein kinase 1 (Homo sapiens) (UniProt P28482)
Test: Inhibition of human MAPK2/ERK2 at 10 uM
Settings: not given

Structure (SMILES) | inhibition
CSc1nc(-c2ccc(F)cc2)c(-c2ccnc(NC3CCc4ccccc43)c2)[nH]1 (stereo unspecified) | 0%
CCC(Nc1cc(-c2[nH]c(SC)nc2-c2ccc(F)cc2)ccn1)c1ccccc1 (stereo unspecified) | 21%
